Biological target: T1, human B1R (Homo sapiens, UniProt P46663)
T1 construct: expressed in transfected cells; host or cells: CHO K1 cells (Chinese Hamster Ovary), stably transfected
T1 sequence (P46663 1-353): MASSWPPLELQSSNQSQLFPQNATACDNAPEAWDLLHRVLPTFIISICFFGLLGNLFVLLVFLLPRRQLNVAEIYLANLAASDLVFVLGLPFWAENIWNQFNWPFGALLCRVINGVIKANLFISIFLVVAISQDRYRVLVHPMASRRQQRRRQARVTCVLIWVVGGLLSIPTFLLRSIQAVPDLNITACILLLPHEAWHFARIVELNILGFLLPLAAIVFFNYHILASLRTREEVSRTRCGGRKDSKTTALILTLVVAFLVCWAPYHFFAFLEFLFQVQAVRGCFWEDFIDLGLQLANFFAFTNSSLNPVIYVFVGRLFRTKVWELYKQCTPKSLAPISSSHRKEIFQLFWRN
Experiment: Functional assay at bradykinin receptor 1 (B1R): Ca2+ fluorescence (Fluo-4) in FLIPR/Novostar, antagonist mode
Assay type: cell-based
Conditions: test substance 10 µM; CHO K1 cells stably transfected with human B1R gene (hB1R-Zellen); agonist Lys-Des-Arg9-Bradykinin at EC80; % inhibition relative to maximal achievable inhibition; read-out: % Inhibierung (human B1R) bei 10 µM
Procedure, shortened: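 Antagonism read as suppression of the Ca2+ rise in Fluo-4-loaded, hB1R-transfected CHO K1 cells when Lys-Des-Arg9-bradykinin (EC80) follows a 6–20 min compound preincubation. Maximal fluorescence counts, measured on FLIPR or Novostar, yield % inhibition relative to maximum; IC50 values come from concentration series run in duplicate or triplicate.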

| inhibition at 10 µM [%] | Compound |
| --- | --- |
| 98 | COc1cc(C)c(S(=O)(=O)Cc2nnc(CC(=O)NC3CCNCC3)o2)c(C)c1 [CC-97, 2-[5-[[(4-Methoxy-2,6-dimethyl-phenyl)sulfonyl]-methyl]-[1,3,4]oxadiazol-2-yl]-N-piperidin-4-yl-acetamid] |
| 100 | Cc1cccc(Cl)c1S(=O)(=O)Cc1noc(CC(=O)NC2CCC(N3CCN(C)CC3)CC2(C)C)n1 (stereo not shown) [CC-98, 2-[3-[[(2-Chlor-6-methyl-phenyl)sulfonyl]-methyl]-[1,2,4]oxadiazol-5-yl]-N-[2,2-dimethyl-4-(4-methyl-piperazin-1-yl)-cyclohexyl]-acetamid] |
| 100 | COc1cc(C)c(S(=O)(=O)Cc2nc(CC(=O)N(C)C3CCNCC3(C)C)no2)c(C)c1 (stereo not shown) [CC-101, N-(3,3-Dimethyl-piperidin-4-yl)-2-[5-[[(4-methoxy-2,6-dimethyl-phenyl)sulfonyl]-methyl]-[1,2,4]oxadiazol-3-yl]-N-methyl-acetamid] |
| 100 | COc1cc(C)c(S(=O)(=O)Cc2nc(CC(=O)NC3CCN(C)CC3(C)C)no2)c(C)c1 (stereo not shown) [CC-102, 2-[5-[[(4-Methoxy-2,6-dimethyl-phenyl)sulfonyl]-methyl]-[1,2,4]oxadiazol-3-yl]-N-(1,3,3-trimethyl-piperidin-4-yl)-acetamid] |
| 88 | Cc1cc(S(=O)(=O)Cc2noc(CC(=O)NC3CCN(C)CC3(C)C)n2)c(C)cc1Cl (stereo not shown) [CC-105, 2-[3-[[(4-Chlor-2,5-dimethyl-phenyl)sulfonyl]-methyl]-[1,2,4]oxadiazol-5-yl]-N-(1,3,3-trimethyl-piperidin-4-yl)-acetamid] |
| 82 | CC1(C)CC(N2CCCC2)CCC1NC(=O)Cc1nc(CS(=O)(=O)c2cccc(Cl)c2Cl)no1 (stereo not shown) [CC-106, 2-[3-[[(2,3-Dichlor-phenyl)sulfonyl]-methyl]-[1,2,4]oxadiazol-5-yl]-N-(2,2-dimethyl-4-pyrrolidin-1-yl-cyclohexyl)-acetamid] |
| 88 | Cc1cccc(Cl)c1S(=O)(=O)Cc1noc(CC(=O)N(C2CCC(N(C)C)CC2)C2CC2)n1 (stereo not shown) [CC-108, 2-[3-[[(2-Chlor-6-methyl-phenyl)sulfonyl]-methyl]-[1,2,4]oxadiazol-5-yl]-N-cyclopropyl-N-(4-dimethylamino-cyclohexyl)-acetamid] |
| 100 | CC1(C)CC(c2ccncc2)CCC1NC(=O)Cc1nc(CS(=O)(=O)c2cccc(Cl)c2Cl)no1 (stereo not shown) [CC-109, 2-[3-[[(2,3-Dichlor-phenyl)sulfonyl]-methyl]-[1,2,4]oxadiazol-5-yl]-N-(2,2-dimethyl-4-pyridin-4-yl-cyclohexyl)-acetamid] |
| 87 | Cc1cccc(Cl)c1S(=O)(=O)Cc1noc(CC(=O)N(C)C2CCNCC2(C)C)n1 (stereo not shown) [CC-110, 2-[3-[[(2-Chlor-6-methyl-phenyl)sulfonyl]-methyl]-[1,2,4]oxadiazol-5-yl]-N-(3,3-dimethyl-piperidin-4-yl)-N-methyl-acetamid] |
| 100 | COc1cc(C)c(S(=O)(=O)Cc2nnc(CC(=O)NC3CCN(C)CC3(C)C)o2)c(C)c1 (stereo not shown) [CC-111, 2-[5-[[(4-Methoxy-2,6-dimethyl-phenyl)sulfonyl]-methyl]-[1,3,4]oxadiazol-2-yl]-N-(1,3,3-trimethyl-piperidin-4-yl)-acetamid] |
| 67 | CN(C)C1CCC(N(C(=O)Cc2nc(CS(=O)(=O)c3cccc(Cl)c3Cl)no2)C2CC2)CC1 (stereo not shown) [CC-112, N-Cyclopropyl-2-[3-[[(2,3-dichlor-phenyl)sulfonyl]-methyl]-[1,2,4]oxadiazol-5-yl]-N-(4-dimethyl-amino-cyclohexyl)-acetamid] |
| 100 | COc1cc(C)c(S(=O)(=O)Cc2nc(CC(=O)N(C3CCC(N(C)C)CC3)C3CC3)no2)c(C)c1 (stereo not shown) [CC-116, N-Cyclopropyl-N-(4-dimethylamino-cyclohexyl)-2-[5-[[(4-methoxy-2,6-dimethyl-phenyl)sulfonyl]-methyl]-[1,2,4]oxadiazol-3-yl]-acetamid] |
| 93 | COc1cc(C)c(S(=O)(=O)Cc2c(C)nn(CC(=O)N(C3CCC(N(C)C)CC3)C3CC3)c2C)c(C)c1 (stereo not shown) [CC-118, N-Cyclopropyl-N-(4-dimethylamino-cyclohexyl)-2-[4-[[(4-methoxy-2,6-dimethyl-phenyl)sulfonyl]-methyl]-3,5-dimethyl-1H-pyrazol-1-yl]-acetamid] |
| 100 | COc1cc(C)c(S(=O)(=O)Cc2nnc(CC(=O)N(C3CCC(N(C)C)CC3)C3CC3)o2)c(C)c1 (stereo not shown) [CC-124, N-Cyclopropyl-N-(4-dimethylamino-cyclohexyl)-2-[5-[[(4-methoxy-2,6-dimethyl-phenyl)sulfonyl]-methyl]-[1,3,4]oxadiazol-2-yl]-acetamid] |
| 68 | COc1cc(C)c(S(=O)(=O)Cc2cc(C)n(CC(=O)NC3CCC(c4ccncc4)CC3(C)C)n2)c(C)c1 (stereo not shown) [CC-127, N-(2,2-Dimethyl-4-pyridin-4-yl-cyclohexyl)-2-[3-[[(4-methoxy-2,6-dimethyl-phenyl)sulfonyl)-methyl]-5-methyl-1 H-pyrazol-1-yl]-acetamid] |
| 100 | COc1cc(C)c(S(=O)(=O)Cc2noc(C(=O)N3CCC(N4CCN(C)CC4)CC3)n2)c(C)c1 [CC-129, [3-[[(4-Methoxy-2,6-dimethyl-phenyl)sulfonyl]-methyl]-[1,2,4]oxadiazol-5-yl]-[4-(4-methyl-piperazin-1-yl)-piperidin-1-yl]-methanon] |

Second part, the compound before the results:

| Compound | inhibition at 10 µM [%] |
| --- | --- |
| COCCN1CCC(NC(=O)Cc2nc(CS(=O)(=O)c3cc(C)c(Cl)cc3C)no2)C(C)(C)C1 (stereo not shown) [CC-77, 2-[3-[[(4-Chlor-2,5-dimethyl-phenyl)sulfonyl]-methyl]-[1,2,4]oxadiazol-5-yl]-N-[1-(2-methoxy-ethyl)-3,3-dimethyl-piperidin-4-yl]-acetamid] | 80 |
| Cc1cc(S(=O)(=O)Cc2noc(CC(=O)NC3CCC(c4ccncc4)CC3(C)C)n2)c(C)cc1Cl (stereo not shown) [CC-80, 2-[3-[[(4-Chlor-2,5-dimethyl-phenyl)sulfonyl]-methyl]-[1,2,4]oxadiazol-5-yl]-N-(2,2-dimethyl-4-pyridin-4-yl-cyclohexyl)-acetamid] | 99 |
| Cc1cc(S(=O)(=O)Cc2noc(CC(=O)NC3CCC(N(C)C)CC3)n2)c(C)cc1Cl (stereo not shown) [CC-81, 2-[3-[[(4-Chlor-2,5-dimethyl-phenyl)sulfonyl]-methyl]-[1,2,4]oxadiazol-5-yl]-N-(4-dimethylamino-cyclohexyl)-acetamid] | 79 |
| COc1cc(C)c(S(=O)(=O)Cc2nnc(CC(=O)NC3CCC(N4CCN(C)CC4)CC3(C)C)o2)c(C)c1 (stereo not shown) [CC-86, N-[2,2-Dimethyl-4-(4-methyl-piperazin-1-yl)-cyclohexyl]-2-[5-[[(4-methoxy-2,6-dimethylphenyl)sulfonyl)-methyl]-[1,3,4]oxadiazol-2-yl]-acetamid] | 100 |
| COc1cc(C)c(S(=O)(=O)Cc2nnc(CC(=O)N(C)C3CCNCC3(C)C)o2)c(C)c1 (stereo not shown) [CC-88, N-(3,3-Dimethyl-piperidin-4-yl)-2-[5-[[(4-methoxy-2,6-dimethyl-phenyl)sulfonyl]-methyl]-[1,3,4]oxadiazol-2-yl]-N-methyl-acetamid] | 97 |
| Cc1cccc(Cl)c1S(=O)(=O)Cc1noc(CC(=O)NC2CCNCC2)n1 [CC-90, 2-[3-[[(2-Chlor-6-methyl-phenyl)sulfonyl]-methyl]-[1,2,4]oxadiazol-5-yl]-N-piperidin-4-yl-acetamid] | 72 |
| Cc1cccc(Cl)c1S(=O)(=O)Cc1noc(CC(=O)NC2CCC(N3CCCC3)CC2(C)C)n1 (stereo not shown) [CC-91, 2-[3-[[(2-Chlor-6-methyl-phenyl)sulfonyl]-methyl]-[1,2,4]oxadiazol-5-yl]-N-(2,2-dimethyl-4-pyrrolidin-1-yl-cyclohexyl)-acetamid] | 97 |
| Cc1cccc(Cl)c1S(=O)(=O)Cc1noc(CC(=O)NC2CCC(N3CCCC3)CC2)n1 (stereo not shown) [CC-93, 2-[3-[[(2-Chlor-6-methyl-phenyl)sulfonyl]-methyl]-[1,2,4]oxadiazol-5-yl]-N-(4-pyrrolidin-1-yl-cyclohexyl)-acetamid] | 100 |
| COCCN1CCC(NC(=O)Cc2nc(CS(=O)(=O)c3c(C)cccc3Cl)no2)C(C)(C)C1 (stereo not shown) [CC-94, 2-[3-[[(2-Chlor-6-methyl-phenyl)sulfonyl]-methyl]-[1,2,4]oxadiazol-5-yl]-N-[1-(2-methoxy-ethyl)-3,3-dimethyl-piperidin-4-yl]-acetamid] | 100 |
| Cc1cccc(Cl)c1S(=O)(=O)Cc1noc(CC(=O)NC2CCC(NC3CC3)CC2(C)C)n1 (stereo not shown) [CC-95, 2-[3-[[(2-Chlor-6-methyl-phenyl)sulfonyl]-methyl]-[1,2,4]oxadiazol-5-yl]-N-[4-(cyclopropylamino)-2,2-dimethyl-cyclohexyl]-acetamid] | 100 |
| Cc1cccc(Cl)c1S(=O)(=O)Cc1noc(CC(=O)NC2CCN(C)CC2(C)C)n1 (stereo not shown) [CC-96, 2-[3-[[(2-Chlor-6-methyl-phenyl)sulfonyl]-methyl]-[1,2,4]oxadiazol-5-yl]-N-(1,3,3-trimethyl-piperidin-4-yl)-acetamid] | 100 |
| Cc1cc(S(=O)(=O)Cc2noc(CC(=O)N(C)C3CCNCC3(C)C)n2)c(C)cc1Cl (stereo not shown) [CC-100, 2-[3-[[(4-Chlor-2,5-dimethyl-phenyl)sulfonyl]-methyl]-[1,2,4]oxadiazol-5-yl]-N-(3,3-dimethyl-piperidin-4-yl)-N-methyl-acetamid] | 58 |
